Data: publication PMC6572338 (2019)

Legend:
[1] = system: C-mycG4 (Pu-27); C-myc G4 (DNA, G4) TGGGGAGGGTGGGGAGGGTGGGGAAGG; experiment: PCR-stop assay; settings: 50 mM KCl; Platinum Supermix, 0.5 uM each oligonucleotide, Pu27rev primer; dose-dependent reduction of product
[2] = system: Pu27rev (DNA, single strand) ATCGATCGCTTCTTCGTCCTTCCCCA; experiment: SPR (Biacore 3000); settings: 200 mM KCl, 5 mM MgCl2; 20 mM HEPES pH 7.5, 1% DMSO, 0.005% P-20; immobilised compound; NB, oligonucleotide up to 10 uM
[3] = system: C-kit1; C-kit1 G4 (DNA, G4) AGGGAGGGCGCTGGGAGGAGGG; experiment: SPR (Biacore 3000), 1:1 Langmuir kinetics; settings: 200 mM KCl, 5 mM MgCl2; 20 mM HEPES pH 7.5, 1% DMSO, 0.005% P-20; immobilised compound
[4] = system: c-myc_G4_2345; Pu21_2345 (DNA, G4) GAGGGTGGGGAGGGTGGGGAA; experiment: SPR (Biacore 3000), 1:1 Langmuir kinetics; settings: 200 mM KCl, 5 mM MgCl2, 20 mM HEPES pH 7.5, 1% DMSO, 0.005% P-20, immobilised compound
[5] = system: C-mycG4 (Pu-27); C-myc G4 (DNA, G4) TGGGGAGGGTGGGGAGGGTGGGGAAGG; experiment: SPR (Biacore 3000), 1:1 Langmuir kinetics; settings: 200 mM KCl, 5 mM MgCl2, 20 mM HEPES pH 7.5, 1% DMSO, 0.005% P-20, immobilised compound
[6] = system: c-myc_G4_1234; Pu21_1234 (DNA, G4) TGGGGAGGGTGGGGAGGGTGG; experiment: SPR (Biacore 3000), 1:1 Langmuir kinetics; settings: 200 mM KCl, 5 mM MgCl2, 20 mM HEPES pH 7.5, 1% DMSO, 0.005% P-20, immobilised compound
[7] = system: C-kit2; C-kit2 G4 (DNA, G4) GGGCGGGCGCGAGGGAGGGG; experiment: SPR (Biacore 3000), 1:1 Langmuir kinetics; settings: 200 mM KCl, 5 mM MgCl2; 20 mM HEPES pH 7.5, 1% DMSO, 0.005% P-20; immobilised compound

| binding [1] | binding [2] | KD [3] [nM] | KD ([4]; text prints 190 nM) [nM] | KD [5] [nM] | KD [6] [nM] | KD [7] [nM] | KD [4] [nM] | KD ([5]; text prints 1.06 µM) [nM] | KD ([6]; text prints 328 nM) [nM] | Structure (SMILES) |
| --- | --- | --- | --- | --- | --- | --- | --- | --- | --- | --- |
| yes | – | – | – | – | – | – | – | – | – | Cc1cnccc1N1CCN(c2nccc3c2nc(-c2c[nH]c4ccncc24)n3CCOCCOCCN)CC1 |
| – | no | 807 | 197 | 328 | 59 | 1400 | – | – | – | Cc1cnccc1N1CCN(c2nccc3c2nc(-c2c[nH]c4ccncc24)n3CCOCCOCCNC(=O)CCCC[C@@H]2SC[C@@H]3NC(=O)N[C@@H]32)CC1 |
| yes | – | – | – | – | – | – | – | – | – | Cn1cccc1CN(CC(=O)NCCOCCOCCN)Cc1ccc(OCC(=O)NCc2nc3ccccc3c(=O)[nH]2)c(Cl)c1 |
| – | no | 1100 | – | – | – | 1700 | 308 | 1050 | 338 | Cn1cccc1CN(CC(=O)NCCOCCOCCNC(=O)CCCC[C@@H]1SC[C@@H]2NC(=O)N[C@@H]21)Cc1ccc(OCC(=O)NCc2nc3ccccc3c(=O)[nH]2)c(Cl)c1 |
